Measured values as given in ChEMBL document CHEMBL5303573, “Mapping human microbiome drug metabolism by gut bacteria and their genes” (Nature, 2019).

Key:
[1] = The drug is tested on Bifidobacterium longum subsp. Infantis strain: CCUG52486 for biotransformation. The drug concentrations were measured before and after a 12-h incubation by liquid-chromatography-coupled mass spectrometry (LC–MS); details: 2 µM
[2] = The drug is tested on Bacteroides pectinophilus strain: ATCC43243 for biotransformation. The drug concentrations were measured before and after a 12-h incubation by liquid-chromatography-coupled mass spectrometry (LC–MS); details: 2 µM
[3] = The drug is tested on Anaerotruncus colihominis strain: DSM17241 for biotransformation. The drug concentrations were measured before and after a 12-h incubation by liquid-chromatography-coupled mass spectrometry (LC–MS); details: 2 µM
[4] = The drug is tested on Clostridium asparagiforme strain: DSM15981 for biotransformation. The drug concentrations were measured before and after a 12-h incubation by liquid-chromatography-coupled mass spectrometry (LC–MS); assay type: ADME; parameters: dose 2 uM, timepoint 0 vs 12 hours; details: enterocloster asparagiformis, 2 µM
[5] = The drug is tested on Clostridium sp. strain: fecal isolate for biotransformation. The drug concentrations were measured before and after a 12-h incubation by liquid-chromatography-coupled mass spectrometry (LC–MS); details: 2 µM
[6] = The drug is tested on Coprococcus comes strain: ATCC27758 for biotransformation. The drug concentrations were measured before and after a 12-h incubation by liquid-chromatography-coupled mass spectrometry (LC–MS); assay type: ADME; parameters: dose 2 uM, timepoint 0 vs 12 hours; details: 2 µM
[7] = The drug is tested on Eubacterium rectale strain: ATCC33656 for biotransformation. The drug concentrations were measured before and after a 12-h incubation by liquid-chromatography-coupled mass spectrometry (LC–MS); details: agathobacter rectalis, 2 µM
[8] = The drug is tested on Providencia rettgeri strain: DSM1131 for biotransformation. The drug concentrations were measured before and after a 12-h incubation by liquid-chromatography-coupled mass spectrometry (LC–MS); assay type: ADME; parameters: dose 2 uM, timepoint 0 vs 12 hours; details: 2 µM
[9] = bifidobacterium adolescentis, 12 h, 2 µM
Description: The drug is tested on Bifidobacterium adolescentis strain: ATCC 15703 for biotransformation. The drug concentrations were measured before and after a 12-h incubation by liquid-chromatography-coupled mass spectrometry (LC–MS)

[10] = segatella copri, 12 h, 2 µM
Description: The drug is tested on Prevotella copri strain: DSM18205 for biotransformation. The drug concentrations were measured before and after a 12-h incubation by liquid-chromatography-coupled mass spectrometry (LC–MS)

[11] = enterocloster bolteae, 12 h, 2 µM
Description: The drug is tested on Clostridium bolteae strain: ATCCBAA-613 for biotransformation. The drug concentrations were measured before and after a 12-h incubation by liquid-chromatography-coupled mass spectrometry (LC–MS)

[12] = roseburia intestinalis, 12 h, 2 µM
Description: The drug is tested on Roseburia intestinalis strain: L1-82 for biotransformation. The drug concentrations were measured before and after a 12-h incubation by liquid-chromatography-coupled mass spectrometry (LC–MS)

[13] = akkermansia muciniphila, 12 h, 2 µM
Description: The drug is tested on Akkermansia muciniphila strain: ATCC BAA-835 for biotransformation. The drug concentrations were measured before and after a 12-h incubation by liquid-chromatography-coupled mass spectrometry (LC–MS)

[14] = The drug is tested on Bacteroides uniformis strain: ATCC8492 for biotransformation. The drug concentrations were measured before and after a 12-h incubation by liquid-chromatography-coupled mass spectrometry (LC–MS); details: 2 µM
[15] = The drug is tested on Eubacterium hallii strain: DSM3353 for biotransformation. The drug concentrations were measured before and after a 12-h incubation by liquid-chromatography-coupled mass spectrometry (LC–MS); details: anaerobutyricum hallii, 2 µM
[16] = The drug is tested on Providencia stuartii strain: ATCC25827 for biotransformation. The drug concentrations were measured before and after a 12-h incubation by liquid-chromatography-coupled mass spectrometry (LC–MS); details: 2 µM
[17] = bacteroides eggerthii, 12 h, 2 µM
Description: The drug is tested on Bacteroides eggerthii strain: DSM20697 for biotransformation. The drug concentrations were measured before and after a 12-h incubation by liquid-chromatography-coupled mass spectrometry (LC–MS)

[18] = bacteroides intestinalis, 12 h, 2 µM
Description: The drug is tested on Bacteroides intestinalis strain: DSM17393 for biotransformation. The drug concentrations were measured before and after a 12-h incubation by liquid-chromatography-coupled mass spectrometry (LC–MS)

[19] = parabacteroides distasonis, 12 h, 2 µM
Description: The drug is tested on Parabacteroides distasonis strain: ATCC8503 for biotransformation. The drug concentrations were measured before and after a 12-h incubation by liquid-chromatography-coupled mass spectrometry (LC–MS)

[20] = The drug is tested on Bifidobacterium ruminantium strain: fecal isolate for biotransformation. The drug concentrations were measured before and after a 12-h incubation by liquid-chromatography-coupled mass spectrometry (LC–MS); details: 2 µM

Structure (SMILES) | Bacterial Biotransformation [1] | Bacterial Biotransformation [2] | Bacterial Biotransformation [3] | Bacterial Biotransformation [4] | Bacterial Biotransformation [5] | Bacterial Biotransformation [6] | Bacterial Biotransformation [7] | Bacterial Biotransformation [8] | Bacterial Biotransformation [9] | Bacterial Biotransformation [10] | Bacterial Biotransformation [11] | Bacterial Biotransformation [12] | Bacterial Biotransformation [13] | Bacterial Biotransformation [14] | Bacterial Biotransformation [15] | Bacterial Biotransformation [16] | Bacterial Biotransformation [17] | Bacterial Biotransformation [18] | Bacterial Biotransformation [19] | Bacterial Biotransformation [20]
CC(=O)OCC(=O)[C@@]1(O)[C@@H](C)C[C@H]2[C@@H]3CCC4=CC(=O)C=C[C@]4(C)[C@@]3(F)[C@@H](O)C[C@@]21C [BETAMETHASONE ACETATE] | Compound NOT metabolized | Compound NOT metabolized | Compound NOT metabolized | Compound NOT metabolized | Compound metabolized | Compound NOT metabolized | Compound NOT metabolized | Compound NOT metabolized | Compound NOT metabolized | Compound NOT metabolized | Compound NOT metabolized | Compound NOT metabolized | Compound NOT metabolized | – | – | – | – | – | – | –
CC(O)(CS(=O)(=O)c1ccc(F)cc1)C(=O)Nc1ccc(C#N)c(C(F)(F)F)c1 (configuration not stated) [BICALUTAMIDE] | Compound NOT metabolized | Compound NOT metabolized | Compound NOT metabolized | Compound NOT metabolized | Compound NOT metabolized | Compound NOT metabolized | Compound NOT metabolized | – | Compound NOT metabolized | Compound NOT metabolized | Compound NOT metabolized | Compound NOT metabolized | Compound NOT metabolized | Compound NOT metabolized | Compound NOT metabolized | Compound NOT metabolized | Compound NOT metabolized | Compound NOT metabolized | Compound metabolized | –
CCCCCCOC(=O)/N=C(/N)c1ccc(NCc2nc3cc(C(=O)N(CCC(=O)OCC)c4ccccn4)ccc3n2C)cc1.CS(=O)(=O)O [DABIGATRAN ETEXILATE MESYLATE] | Compound NOT metabolized | Compound NOT metabolized | Compound NOT metabolized | Compound NOT metabolized | – | Compound NOT metabolized | Compound NOT metabolized | Compound NOT metabolized | Compound NOT metabolized | Compound NOT metabolized | Compound NOT metabolized | Compound NOT metabolized | Compound NOT metabolized | Compound NOT metabolized | Compound NOT metabolized | Compound NOT metabolized | Compound NOT metabolized | Compound NOT metabolized | Compound NOT metabolized | Compound NOT metabolized
C[C@@H](CO)NC(=O)[C@@H]1C=C2c3cccc4[nH]cc(c34)C[C@H]2N(C)C1.O=C(O)/C=C\C(=O)O [ERGONOVINE MALEATE] | Compound metabolized | Compound metabolized | Compound metabolized | Compound metabolized | – | Compound metabolized | Compound NOT metabolized | Compound NOT metabolized | – | Compound metabolized | – | Compound NOT metabolized | Compound NOT metabolized | Compound metabolized | – | Compound metabolized | – | Compound metabolized | – | Compound NOT metabolized
CS(=O)(=O)O.OC(CCN1CCCCC1)(c1ccccc1)c1ccccc1 [PRIDINOL METHANESULFONATE] | Compound NOT metabolized | Compound NOT metabolized | Compound NOT metabolized | Compound NOT metabolized | – | Compound NOT metabolized | Compound NOT metabolized | Compound NOT metabolized | Compound NOT metabolized | Compound NOT metabolized | Compound NOT metabolized | Compound NOT metabolized | Compound NOT metabolized | – | Compound NOT metabolized | Compound NOT metabolized | Compound NOT metabolized | Compound NOT metabolized | – | Compound NOT metabolized
CNNCc1ccc(C(=O)NC(C)C)cc1 [PROCARBAZINE] | Compound NOT metabolized | Compound NOT metabolized | Compound NOT metabolized | Compound NOT metabolized | Compound NOT metabolized | Compound NOT metabolized | Compound NOT metabolized | Compound NOT metabolized | Compound NOT metabolized | Compound NOT metabolized | Compound NOT metabolized | Compound NOT metabolized | Compound NOT metabolized | Compound NOT metabolized | Compound NOT metabolized | Compound NOT metabolized | – | – | Compound NOT metabolized | –
COc1cc2nc(N3CCN(C(=O)C4CCCO4)CC3)nc(N)c2cc1OC (configuration not stated) [TERAZOSIN] | Compound NOT metabolized | Compound NOT metabolized | Compound NOT metabolized | Compound NOT metabolized | Compound NOT metabolized | Compound NOT metabolized | Compound NOT metabolized | Compound NOT metabolized | Compound NOT metabolized | Compound NOT metabolized | Compound NOT metabolized | Compound NOT metabolized | Compound NOT metabolized | Compound NOT metabolized | Compound NOT metabolized | Compound NOT metabolized | Compound NOT metabolized | Compound NOT metabolized | Compound NOT metabolized | –
COc1cc(C(=O)NCc2ccc(OCCN(C)C)cc2)cc(OC)c1OC [TRIMETHOBENZAMIDE] | Compound NOT metabolized | Compound NOT metabolized | Compound NOT metabolized | Compound NOT metabolized | Compound NOT metabolized | Compound NOT metabolized | – | – | Compound NOT metabolized | Compound NOT metabolized | Compound NOT metabolized | Compound NOT metabolized | Compound NOT metabolized | Compound NOT metabolized | Compound NOT metabolized | Compound NOT metabolized | Compound NOT metabolized | Compound NOT metabolized | Compound NOT metabolized | –
CC(=O)CC(c1ccccc1)c1c(O)c2ccccc2oc1=O (configuration not stated) [WARFARIN] | Compound NOT metabolized | Compound NOT metabolized | Compound NOT metabolized | Compound NOT metabolized | Compound NOT metabolized | Compound NOT metabolized | Compound NOT metabolized | Compound NOT metabolized | Compound NOT metabolized | – | Compound NOT metabolized | Compound NOT metabolized | Compound NOT metabolized | Compound NOT metabolized | Compound NOT metabolized | Compound NOT metabolized | Compound NOT metabolized | Compound NOT metabolized | Compound NOT metabolized | –
